Measured values: patent US20140364316A1, “COMPOSITION FOR IMPROVING RESISTANCE TO ENVIRONMENTAL STRESS OF PLANT AND METHOD FOR IMPROVING RESISTANCE TO ENVIRONMENTAL STRESS OF PLANT” (The Shizuoka Chamber of Commerce and Industry, priority 2012, published 2014)

Tests used:
Arabidopsis thaliana = experiment: Evaluation of high temperature resistance 2 (35° C. for 1 hour and 45° C. for 2 hours); format: in vivo; conditions: 4th day after high temperature exposure
Description: As a sanguinarine reagent available on the market, a sanguinarine chloride hydrate (S5890-25MG manufactured by Sigma-Aldrich Japan K.K.) was obtained, the sanguinarine chloride hydrate was dissolved in water such that the sanguinarine concentration is 0.2 ppm, 2 ppm, or 20 ppm, and thus a sample liquid for each test plot was respectively prepared. In addition, as a sample liquid for the control plot, a 0.5% DMSO solution was prepared. By using these sample liquids, the following tests were performed.
Seeds of Arabidopsis thaliana were sowed and cultivated in a rockwool cube which had been saturated with a diluent of the HYPONEX (registered trademark) diluted by 1,000 times. The cultivation environment conditions were a cycle of [bright place for 16 hours+dark place for 8 hours], and a temperature of 22° C. On around the strain of Arabidopsis thaliana on the 14th day after the start of cultivation, a sample liquid composed of an aqueous sanguinarine solution that had been adjusted to various concentrations, and a 0.5% DMSO solution for the control plot were respectively applied dropwise using a dropper. The dropping amount was set to 100 μL per a plant body. Therefore, the sanguinarine amount applied per a plant body in each test plot was 0.02 μg in the test plot of 0.2 ppm, 0.2 μg in the test plot of 2 ppm, and 0.002 mg in the test plot of 20 ppm. After the dropping, under the initial cultivation environment conditions, the cultivation was continued for 2 days, then the room temperature was increased to 35° C., and exposure was performed for 1 hour in a bright place. Further, the room temperature was increased to 45° C., and high temperature exposure was performed for 2 hours in a dark place. […]
The state of the grown true leaves of Arabidopsis thaliana on the 4th day after the high temperature exposure under the above conditions was visually evaluated on a four level scale (index, 3: plant death, 2: partial plant death, 1: partial whitening, and 0: normal), and by assigning the values to the following equation, the average degree of damage was calculated. […]

rats = conditions: Non Patent Literature 1; cited from earlier work

Which “average degree of damage with increasing dosage” value (Arabidopsis thaliana; 0.2 ppm to 20 ppm, FIG. 4) does the source give for `C[n+]1cc2c3c(ccc2c2ccc4cc5c(cc4c21)OCO5)OCO3` [sanguinarine] here?
The value was “average degree of damage of Arabidopsis thaliana is reduced”.

What about the “growth (appearance and average degree of damage) compared with control plot (0.5% DMSO solution)” value (Arabidopsis thaliana; sanguinarine 0.2 ppm, 2 ppm or 20 ppm, 100 μL per plant body, FIG. 3, FIG. 4) of the same compound?
The value was “growth was relatively favorable”.

And the “average degree of damage” value (Arabidopsis thaliana; sanguinarine 20 ppm (0.002 mg per plant body))?
The value was “less than 10%”.

What about the “physiological disorders after administration” value (rats) of the same compound?
The value was “disorders of particular note were not observed”.
